Measurements: patent publication US20250186545A1, “RECOMBINANT PROTEIN FOR ULCERATIVE COLITIS TREATMENT OR PREVENTION AND COMPOSITION FOR ULCERATIVE COLITIS TREATMENT OR PREVENTION CONTAINING THE SAME” (NEXEL CO., LTD., priority 2021, published 2025)

Legend:
Type in all cases: in vivo, C57BL/6 mice
[1] = test system: DSS-induced colitis model; test: Body weight change, study of FIG. 10 (FIG. 12, Tables 4 and 5); settings: for Change of original weight: AD group
Excerpt: (§1) First, in the case of an animal model for mice in which ulcerative colitis is induced using DSS (Dextran sulfate sodium), bloody stool, weight loss, large intestinal shrinkage, and mucosal ulcers occur, and histologically, damage occurs in large intestinal epithelial cells, so that the intestinal glands of an epithelial layer fall off without inflammation. Further, the amount of f various immune substances in the mucosa increases to cause intestinal inflammation. For this reason, DSS has been widely used to create experimental animal models.
(§2) Specifically, in a DSS-induced colitis model in which 9-week-old female C57BL/6 mice were allowed to freely ingest 2% DSS, an experiment was conducted assuming that one C57BL/6 mouse ingested 5 ml of water containing 2% DSS per day.
(§3) For 7 days, only water containing 2% DSS without any treatment was provided to the mice, and for 5 days after the 7th day, water without 2% DSS was provided, and simultaneously, various comparative substances, including NP-011 protein, were fed at various concentrations by injection into the caudal vein, thereby creating an animal model of inducing ulcerative colitis.
Lastly, as shown in FIG. 6 and FIG. 10, a third experimental group ‘NP-011’ that is an experimental group was supplied with only water containing 2% DSS from day 0 to day 7, was supplied with plain water from day 7 to day 14, […] for 5 days starting from day 7, a total of 5 times.
In addition, increase or decrease in body weight was analyzed on the basis of the original body weight, and the level of weight increase or decrease compared with the positive control group was also analyzed.

[2] = test system: DSS-induced colitis model; test: Histopathology (H&E) of large intestinal mucosa: erosion and epithelial hyperplasia; study of FIG. 10
Excerpt: as §1, §2, §3
(§4) Lastly, as shown in FIG. 6 and FIG. 10, a third experimental group ‘NP-011’ that is an experimental group was supplied with only water containing 2% DSS from day 0 to day 7, was supplied with plain water from day 7 to day 14, and NP-011 recombinant protein of 320 μg/kg was administered once a day for 5 days starting from day 7, a total of 5 times.
Form the results in FIG. 7 and Table 1, it can be confirmed that the degrees of crypt damage, inflammation severity, and inflammation extent in the mucosa were reduced in the order of MFG-E8 160 μg/kg, NP-011 80 μg/kg, and NP-011 320 μg/kg compared with the positive control group after induction of ulcerative colitis, so that the overall degree of damage to the large intestinal mucosa was lowered.
Then, the tissue fixed with 4% paraformaldehyde was subjected to staining (Hematoxylin & Eosin stain) and histopathological examination by KP&T Co., Ltd. The pathological interpretation was made with reference to INHAND. The degrees of erosion and epithelial hyperplasia in the mucosa of the large intestinal tissue were measured for comparison of lesions in the respective animal model groups, and results thereof are shown in FIG. 11 and Table 2. (Reference-J Toxicol Pathol 2016; 29 (1 Suppl)): 1S-124S)

[3] = test system: DSS-induced colitis model; test: Histopathology (H&E) of large intestinal mucosa: crypt damage, inflammation severity, inflammation extent; study of FIG. 6
Excerpt: First, in the case of an animal model for mice in which ulcerative colitis is induced using DSS (Dextran sulfate sodium), bloody stool, weight loss, large intestinal shrinkage, and mucosal ulcers occur, and histologically, damage occurs in large intestinal epithelial cells, so that the intestinal glands of an epithelial layer fall off without inflammation. Further, the amount of f various immune substances in the mucosa increases to cause intestinal inflammation. For this reason, DSS has been widely used to create experimental animal models. Specifically, in a DSS-induced colitis model in which 9-week-old female C57BL/6 mice were allowed to freely ingest 2% DSS, an experiment was conducted assuming that one C57BL/6 mouse ingested 5 ml of water containing 2% DSS per day. For 7 days, only water containing 2% DSS without any treatment was provided to the mice, and for 5 days after the 7th day, water without 2% DSS was provided, and simultaneously, various comparative substances, including NP-011 protein, were fed at various concentrations by injection into the caudal vein, thereby creating an animal model of inducing ulcerative colitis. […] Lastly, as shown in FIG. 6 and FIG. 10, a third experimental group 'NP-011' that is an experimental group was supplied with only water containing 2% DSS from day 0 to day 7, was supplied with plain water from day 7 to day 14, and NP-011 recombinant protein of 320 μg/kg was administered once a day for 5 days starting from day 7, a total of 5 times. First, using the animal models corresponding to the 'NTC' control group, the 'UC CONTROL' control group, the 'MFG-E8' experimental group, the 'NP-011' second experimental group, and the 'NP-011' third experimental group, for each animal model group, the cecum was removed from a large intestinal tissue, and 1 to 2 cm of the proximal and 1 cm of the anus were secured and fixed with 4% paraformaldehyde. Then, the tissue fixed with 4% paraformaldehyde was subjected to staining (Hematoxylin & Eosin stain) and histopathological examination by KP&T Co., Ltd. The pathological interpretation was made with reference to […] (International Harmonization of Nomenclature and Diagnostic Criteria for Lesions) which is an international standard toxicology glossary. The degrees of crypt damage, inflammation severity, and inflammation extent in the mucosa of the large intestinal tissue were measured for comparison in the respective animal model groups, and results thereof are shown in FIG. 7 and Table 1. (Reference-J Toxicol Pathol 2016; 29 (1 Suppl): 1S-[…])

[4] = test system: DSS-induced colitis model; test: Colon length, study of FIG. 6 (FIG. 9); settings: MFG-E8 160 μg/kg; 3 days after the last administration
Excerpt: as §1, with “models. […]” for “models.”
First, using the animal models corresponding to the \NTC′ control group, the ‘UC CONTROL’ control group, the ‘MFG-E8’ experimental group, the ‘NP-011’ second experimental group, and the ‘NP-011’ third experimental group, the large intestine was extracted separately for each animal model group, the colon length was analyzed, and the results thereof are shown in FIG. 9.
Specifically, to analyze the colon length, each animal model was euthanized by gradual increase in carbon dioxide 3 days after the last administration, and the large intestine was extracted. The extracted large intestine was photographed with a length measuring device (30 cm ruler), and the obtained photograph was quantified using image J.

[5] = test system: DSS-induced colitis model; test: Body weight change, study of FIG. 6 (FIG. 8, Table 3); settings: MFG-E8 160 μg/kg
Excerpt: as §1, §2, §3, §4
First, using the animal models corresponding to the ‘NTC’ control group, the ‘UC CONTROL’ control group, the ‘MFG-E8’ experimental group, the ‘NP-011’ second experimental group, and the ‘NP-011’ third experimental group, body weight was measured daily for each animal model group before drug administration to reduce errors due to the administration.
In addition, increase or decrease in body weight was analyzed compared with the positive control group, and comprehensive results thereof are shown in FIG. 8 and Table 3.

[6] = MGF-E8 160 μg/kg, once a day x5 from day 7

Molecule: Adalimumab
- Dunnett's multiple comparisons test UC VS AD, Summary (body weight) ([1]; 10 days): ** (** P<0.01)
- weight loss ([1]; Adalimumab group, Cyclosporine A group, NP-011 groups (20 to 80 μg/kg)): weight loss was observed
- Change of original weight ([1]; Day 1): 0.161 g
- Change of original weight ([1]; Day 2): 0.237 g
- Change of original weight ([1]; Day 3): 0.438 g
- Change of original weight ([1]; Day 4): 0.411 g
- Change of original weight ([1]; Day 5): -0.217 g
- Change of original weight ([1]; Day 6): -0.846 g
- Change of original weight ([1]; Day 7): -1.464 g
- Change of original weight ([1]; Day 8): -1.702 g
- Change of original weight ([1]; Day 9): -1.683 g
- Change of original weight ([1]; Day 10): -1.444 g
- Dunnett's multiple comparisons test UC VS AD, Summary (body weight) ([1]; Day 11): **** (**** P<0.0001)
- Change of original weight ([1]; Day 11): -0.471 g
- Dunnett's multiple comparisons test UC VS AD, Summary (body weight) ([1]; Day 12): **** (**** P<0.0001)
- Change of original weight ([1]; Day 12): -0.035 g
- Dunnett's multiple comparisons test UC VS AD, Summary (body weight) ([1]; Day 13): **** (**** P<0.0001)
- Change of original weight ([1]; Day 13): -0.467 g
- Epithelial hyperplasia score ([2]; AD 4 mg/kg): 4.2
- Erosion, mucosa ([2]; AD 4 mg/kg): 0.8
- Group total average ([2]; AD 4 mg/kg, erosion + hyperplasia): 5.0
- degrees of erosion and epidermal hyperplasia in the mucosa of large intestinal tissues ([2]; Adalimumab group): reduced

B1: milk fat globule-EGF factor 8 (protein, UniProt Q08431 24-387, looked up)
Lactadherin: LDICSKNPCHNGGLCEEISQEVRGDVFPSYTCTCLKGYAGNHCETKCVEPLGLENGNIANSQIAASSVRVTFLGLQHWVPELARLNRAGMVNAWTPSSNDDNPWIQVNLLRRMWVTGVVTQGASRLASHEYLKAFKVAYSLNGHEFDFIHDVNKKHKEFVGNWNKNAVHVNLFETPVEAQYVRLYPTSCHTACTLRFELLGCELNGCANPLGLKNNSIPDKQITASSSYKTWGLHLFSWNPSYARLDKQGNFNAWVAGSYGNDQWLQVDLGSSKEVTGIITQGARNFGSVQFVASYKVAYSNDSANWTEYQDPRTGSSKIFPGNWDNHSHKKNLFETPILARYVRILPVAWHNRIALRLELLGC
notes: milk fat globule-EGF factor 8 (MFG-E8) protein, comparator
- degrees of crypt damage, inflammation severity, and inflammation extent in the mucosa compared with the positive control group ([3]; MFG-E8 160 μg/kg): reduced
- Crypt Damage [3, 6]: 2.9
- Inflammation Extent [3, 6]: 1.2
- Inflammation Severity ([3]; MGF-E8 160 μg/kg, once a day x5 from day 7, caudal vein): 1.1
- Group total average ([3]; MGF-E8 160 μg/kg, sum of severity, extent, crypt damage): 5.2
- colon length shrinkage suppression effect compared with the non-administration control group [4]: statistically significant increase in the colon length shrinkage suppression effect
- Dunnett's multiple comparisons test UC VS MFG-E8, Summary (body weight) ([5]; Day 7): ns
- Dunnett's multiple comparisons test UC VS MFG-E8, Summary (body weight) ([5]; Day 8): ns
- Dunnett's multiple comparisons test UC VS MFG-E8, Summary (body weight) ([5]; Day 9): ns
- Dunnett's multiple comparisons test UC VS MFG-E8, Summary (body weight) ([5]; Day 10): ns
- Dunnett's multiple comparisons test UC VS MFG-E8, Summary (body weight) ([5]; Day 11): ns
